Measurements reported in patent US20190292215A1, “COMPOUNDS, COMPOSITIONS, AND METHODS FOR THE TREATMENT OF DISEASE” (Sperovie Biosciences, Inc., priority 2016, published 2019).

System: IFN-β
Assay: Semi-quantitative RT-PCR of IFN-β gene expression in THP1-Dual / KO STING cells
Assay type: cell-based
Conditions: THP1-WT, treated 5 or 22 hrs; Cmd 1 alone (no lipo)
Method: RNA samples were prepared using Qiagen RNeasy kit and the expression of IFNβ, IRF7 and housekeeper gene β-actin was determined using semi-quantitative reverse transcription (RT)-PCR (started with equal amounts of RNA). PCR products were subjected to 1% agarose gel electrophoresis.
Lipofectamine 2000 also activates IFN-β gene, but cells were treated with Cmd 1 alone (no lipo). DMSO is the negative control.

SMILES: Nc1nc2c(ncn2[C@@H]2O[C@@H]3COP(=O)(O)O[C@H]4[C@@H](O)[C@H](n5cnc6c(N)ncnc65)O[C@@H]4COP(=O)(O)O[C@@H]2[C@@H]3O)c(=O)[nH]1 [2′3′-cGAMP]
- Time to induce IFN-β gene expression: ≤ 5 h
